Measurements: patent publication US8242089B2, “Sphingolipids polyalkylamine conjugates for use in transfection” (Yissum Research Development Company of the Hebrew …, priority 2003, dated 2012)

System: NIH 3T3 cells
Assay: Methylene blue toxicity assay on NIH 3T3 cells
Assay type: cell-based
Settings: amounts used in transfection, free assemblies or lipoplexes with luciferase plasmid, lipid/DNA charge ratios 1-16, chloride form
Description: Cytotoxicity was tested by the methylene blue (MB) staining assay [Elliott W M and Auersperg N. Biotech Histochem 68:29-35 (1993)]. In general, a known number of exponentially growing cells in 200 μL of medium were plated in 96-microwell, flat-bottomed plates. For each of the lipoplexes tested, 3 wells were used. Following 24 h of incubation in culture, 20 μL of different concentrations of various lipoplexes were added to each well containing untreated cells. Normal saline was added to the controls. Cells were exposed to lipoplex for 24 h. At the end of exposure the treated cells, as well as parallel control cells were washed and fixed by adding 50 μL of 2.5% glutaraldehyde to each well for 15 min. Fixed cells were rinsed 10 times with deionized water and once with borate buffer (0.1 M, pH 8.5), dried, and stained with MB (100 μL of 1% solution in 0.1 M borate buffer, pH 8.5) for 1 h at r. t. Stained cells were rinsed thoroughly with de-ionized water to remove any non-cell-bound dye and then dried. The MB bound to the fixed cells was extracted by incubation at 37° C. with 200 μL of 0.1 N HCl for 1 h, and the net optical density of the dye in each well was determined by a plate spectrophotometer (Labsystems Multyskan Bichromatic, Finland) at 620 nm.

## CCCCCCCCCCCCC/C=C/[C@@H](O)[C@H](COC(=O)NCCCNCCCCNCCCN)NC(=O)CCCCCCCCCCCCCCC [CCS, N-palmitoyl D-erythro sphingosyl carbamoyl-spermine]
  toxicity (living cells): non toxic
